Data from patent publication US20110045092A1, “CASEIN […] ENCAPSULATING […] ACTIVE AGENTS AND USES THEREOF” (priority 2008, published 2011).
Structures can show the parent of a compound that is named as a salt.

Columns and labels:
[1] = Visual appearance of drug solution with and without β-CN; type: physicochemical
Source text: In order to evaluate the visual appearance of the tested drug when encapsulated within the β-CN system as compared to the non-encapsulated drug solubilized at a similar concentration, in PBS and DMSO (i.e. without the addition of β-CN), photographs were taken of both solutions and their appearance was compared.

Zeta potential analysis = type: physicochemical; details: concentration range studied; PBS pH 7.0
Procedure: Particle size distribution, mean Gaussian diameter, and zeta potential were determined by a combined dynamic light scattering (DLS) and zeta potential analyzer (NICOMP 380, Particle Sizing Systems (Agilent Technologies, Inc.), Santa Barbara, Calif., USA) at 25° C.
Zeta potential was measured in PBS solutions without NaCl, under a 3 V/cm e-field, using phase analysis mode. The zeta potential was calculated from the electrophoretic mobility (EM) using the Smoluchowski model (which is a reasonable approximation given that the radius of the particles (a) was around 125 nm, and the ionic strength during the EM measurement was calculated to be about 50 mM, i.e. the Debye length (κ^−1) was around 1.4 nm, so that the product κ^−1a=92>>1).

β-CN [2] = biological target: T1, β-CN (Bos taurus, UniProt P02666); test: Trp 143 fluorescence quenching of β-CN by drug; type: binding, bovine; details: for Kd: Trp 143 of β-CN quenched by drug, 1 mg/ml β-CN in PBS pH 7.0, emission 332 nm, read-out: Calculated Kd
T1 construct: β-CN from bovine milk (C6905, purity 90%); purchased Sigma-Aldrich Israel Ltd. C6905; host or cells: bovine milk
T1 sequence (P02666 16-224): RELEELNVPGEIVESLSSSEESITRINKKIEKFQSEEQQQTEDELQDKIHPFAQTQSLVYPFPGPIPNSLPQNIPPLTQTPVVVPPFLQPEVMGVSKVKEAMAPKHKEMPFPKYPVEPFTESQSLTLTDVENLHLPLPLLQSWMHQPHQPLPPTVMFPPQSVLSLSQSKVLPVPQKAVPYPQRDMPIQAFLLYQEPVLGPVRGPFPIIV
Procedure: Tryptophan (Trp) Fluorescence:
Trp 143 is located in the main hydrophobic domain of β-CN. Quenching of protein fluorescence due to energy transfer from this Trp residue to a bound ligand serves to determine the binding affinity.
β-CN-drug interaction was studied by monitoring the changes in the Trp fluorescence emission of β-CN upon addition of the drug. Trp fluorescence was determined using an excitation at 287 nm and emission was detected at 332 nm, with slit widths of 1 nm, using the Fluorolog 3-22 spectrofluoreineter. Intrinsic fluorescence of the Trp residues of β-CN was measured before and after addition of different amounts of each drug ranging between drug: β-CN molar ratio of 0.2:1 to 12:1 at 1 mg/ml β-CN. Changes in Trp fluorescence were used to evaluate the binding of the drug to β-CN. The apparent dissociation constant and the number of drug molecules that are involved in binding of one β-CN molecule were calculated from plots of the fluorescence intensity at 332 nm, expressed as the percentage of the fluorescence of the drug-free β-CN vs. the added drug concentration. The data was analyzed using Matlab (MathWorks), by means of the following equations: […]
where F is the fluorescence intensity at a given added ligand (drug) concentration; F0 the fluorescence intensity at the beginning of the titration; F1 the fluorescence at the end of the titration; [PF] the concentration of the free β-CN; [LF] the concentration of the free ligand, drug; [PL] the concentration of the β-CN-drug complex; Kd and Ka are the dissociation and association constants respectively (Christiaenset al. 2002 European Journal of Biochemistry 269 [12]:2918-2926).
Emission spectra of pure 1 mg/ml β-CN vs. those of drug encapsulated in 1mg/ml at 4:1 drug: β-CN molar ratio, were collected at Trp excitation wavelength 287 nm, using the Fluorolog 3-22 spectrofluorometer.

[3] = cited from earlier work
β-CN [4] = biological target: T1, β-CN; test: Mitoxantrone fluorescence quenching by β-CN; type: binding, bovine; details: 42 μM mitoxantrone
Procedure: The β-CN-mitoxantrone interaction was further studied by monitoring the changes in the mitoxantrone fluorescence emission upon addition of β-CN. For this purpose a 3-D fluorescence spectra analysis of mitoxantrone was performed using the Fluorolog 3-22. Mitoxantrone fluorescence emission was measured using 609 nm and 675 nm excitation and emission, respectively, and slit widths of 1 nm. Intrinsic fluorescence of 42 μM mitoxantrone was measured before and after addition of different amounts of β-CN. The β-CN concentration range was 0.1-3.8 mg/ml. The apparent dissociation constant and the number of β-CN molecules bound per mitoxantrone molecule were calculated from plots of the fluorescence intensity at 675 nm expressed as the percentage of the fluorescence of the β-CN-free mitoxantrone vs. the added β-CN concentration. Data were analyzed as detailed herein above for Trp quenching.

[5] = 504 μM drug in PBS with 4.55-5.6% DMSO

## CC(=O)O[C@@]12CO[C@@H]1C[C@H](O)[C@@]1(C)C(=O)[C@H](O)C3=C(C)[C@@H](OC(=O)[C@H](O)[C@@H](NC(=O)OC(C)(C)C)c4ccccc4)C[C@@](O)([C@@H](OC(=O)c4ccccc4)[C@H]21)C3(C)C [Docetaxel, Docetaxel trihydrate]
[1]; [5]
  visual appearance, without β-CN: turbid, unstable and aggregated solution
Zeta potential analysis
  zeta potential of drug in PBS without β-CN: around −30 mV

## CC(=O)O[C@H]1C(=O)[C@@]2(C)[C@H]([C@H](OC(=O)c3ccccc3)[C@]3(O)C[C@H](OC(=O)[C@H](O)[C@@H](NC(=O)c4ccccc4)c4ccccc4)C(C)=C1C3(C)C)[C@]1(OC(C)=O)CO[C@@H]1C[C@@H]2O [Paclitaxel, paclitaxel]
[1]; 84 μM drug in PBS and 0.8% DMSO
  visual appearance, without β-CN: turbid, unstable and aggregated system
β-CN [2]; 4:1 Paclitaxel:β-CN, 1 mg/ml β-CN, excitation 287 nm
  change of β-CN Trp-143 emission upon encapsulation: decrease in emission intensity

## CCc1c2c(nc3ccc(OC(=O)N4CCC(N5CCCCC5)CC4)cc13)-c1cc3c(c(=O)n1C2)COC(=O)[C@]3(O)CC [irinotecan, irinotecan hydrochloride trihydrate]
[3]
  pKa: 8.1
[1]; [5]
  visual appearance, without β-CN: turbid, unstable and aggregated solution

## O=C1c2c(O)ccc(O)c2C(=O)c2c(NCCNCCO)ccc(NCCNCCO)c21 [mitoxantrone, Mitoxantrone dihydrochloride]
[3]
  Log P: higher than 2
β-CN [4]; plateau at 0.7 mg/ml β-CN
  over-all mitoxantrone emission quenched by β-CN, up to % of its initial intensity: up to 65%
β-CN [4]; mitoxantrone fluorescence quenched by β-CN, β-CN 0.1-3.8 mg/ml, excitation 609 nm, emission 675 nm, model fit, read-out: Calculated Kd
  Kd: 0.726 µM
β-CN [2]; excitation 287 nm, model fit
  Kd: 8.43 µM
β-CN [2]; plateau at mitoxantrone:β-CN 6:1, 1 mg/ml β-CN
  over-all Trp emission after quenching, of its initial intensity: 20%

## vinblastine sulfate salt
[3]
  pKa: 5.5
β-CN [2]; excitation 287 nm, model fit
  Kd: 50.9 µM
β-CN [2]; drug molecules per β-CN molecule, Trp quenching, model fit
  n (moles of quencher per moles of fluorophore): 5.25±0.57
β-CN [2]; vinblastine:β-CN 0.2:1 to 10:1 at 1 mg/ml β-CN
  initial overall Trp emission intensity quenched: About 80%
